Assay results: patent US8785431B2, “Prodrugs of (1S,9S)-9-[[(1S)-1-carboxy-3-phenylpropyl]amino]octahydro-10-oxo-6H-pyridazino[1,2-a][1,2]diazepine-1-carboxylic acid and their use in transdermal therapeutic systems” (Hexal AG, priority 2011, dated 2014)

How the values were obtained:
[1] = Crystallization in the TTS; type: physicochemical; details: after 14 months
Text: Moreover, the TTSs with the prodrugs (1), (2) and (6) were examined with regard to crystallization.

[2] = Rate of hydrolysis in porcine skin homogenate at 37° C. (HPLC or HPLC-MS); type: in vitro ADME; details: for reaction kinetics in porcine skin homogenate: in words; for half-life: pig
Protocol: (§1) To assess whether the synthesised cilazapril prodrugs undergo enzymatic cleavage, metabolic studies were carried out in three well established incubation media for the investigation of transdermal administration.
Due to its similarities with human skin, in terms of enzyme activity and distribution, a porcine skin homogenate (25% w/w in PBS-buffer, 0.65 U/ml, 1.3 mg/ml (Bradford)) was used for the metabolic studies.
(§2) Incubation mixtures were prepared by adding a respective prodrug stock solution to porcine skin homogenate (PSH), human plasma and buffered porcine liver esterase (PLE), respectively.
(§3) All samples were incubated in a water bath at 37° C. After 72 h samples of the incubation mixtures (200 μl) were collected. To all samples 400 μl of ice-cold acetonitrile were added. After vortex mixing the samples were allowed to stand in a refrigerator for approx. 30 min. The samples were then centrifuged at 13000 rpm (13000 g) for 5 min. The supernatants were collected and stored at −78° C. until HPLC analysis. To 200 μl of each supernatant 400 μl of aqueous 0.05% trifluoroacetic acid were added prior to injection.
(§4) The kinetics of the hydrolysis of the cilazapril prodrugs in the different incubation media was analysed by HPLC or HPLC-MS.
(§5) The rate of hydrolysis of cilazapril, of some cilazapril prodrugs and cilazapril ethyl ester in porcine skin homogenate, human plasma and buffered porcine liver esterase at 37° C. are presented in Table 4.

in vitro = in vitro ADME
Protocol: as §1
Human plasma (CPD plasma, 3.82 U/ml), which contains i.a. cholinesterase and acetylcholinesterase, was used as the second incubation media.
as §2, §3, §4, §5

[3] = In vitro skin permeation from TTS through human skin (two-compartment diffusion cell); type: in vitro ADME; details: TTS on human skin, 32±1° C., 96 hours, FIG. 1
Protocol: Furthermore the permeability of the prodrugs through the skin was measured by in vitro skin permeation. The in vitro skin permeation of the prodrugs (1), (2) and (6) and of cilazapril through human skin was evaluated using the TTS as prepared in any one of examples 8, 9, and 11.
The flux was determined by using a two-compartment diffusion cell with a section of human skin mounted between the cell halves. A TTS was adhered to one side of the skin and a drug-receiving medium was placed on the receptor-side of the cell. The apparatus was placed in a water bath maintained at 32±1° C. Samples of the receptor medium were collected over a period of 96 hours for HPLC analysis of drug concentration.

[4] = Stability in transdermal therapeutic system (10% in BioPSA Hex 7-4302), extraction and HPLC; type: physicochemical; details: TTS
Protocol: The stability of the prodrugs in the transdermal therapeutic system was determined after different storage times and temperatures by extraction of the transdermal therapeutic system with an organic solvent and subsequent analysis by HPLC.
The stability of the cilazapril prodrugs (1) and (2) in therapeutic transdermal systems was controlled at 25° C./60% relative humidity and compared with the cilazapril in a TTS having the same adhesive layer.

[5] = Metabolic studies in enzyme-containing incubation mixtures (porcine skin homogenate, human plasma, buffered porcine liver esterase), results in words; type: in vitro ADME; details: 37° C.; for degradation / reaction kinetics of enzymatic hydrolysis: enzyme-containing incubation mixtures; for enzymatic cleavage / hydrolysis to cilazaprilate: incubation mixtures
Protocol: as §1
(§6) Buffered porcine liver esterase (suspension in 3.2 M (NH4)2SO4 solution, pH 8, 12 mg prot./ml (Biuret), 260 U/mg prot.) was chosen as the third incubation media, because porcine liver esterase mimics the carboxylesterase present in the human skin.
as §2
as §3, with “After 72 h samples of the incubation mixtures (200 μl) were collected.” left out
as §4

porcine liver esterase = assay: Rate of hydrolysis in buffered porcine liver esterase at 37° C. (HPLC or HPLC-MS); type: in vitro ADME; details: for half-life: pig
Protocol: as §1, §6, §2, §3, §4, §5

[6] = Stability of 10% cilazapril in an acrylic adhesive (Durotak 87-4098, Henkel); type: physicochemical; details: 10% in acrylic adhesive Durotak 87-4098
Text: Instability in a semisolid dosage form is also a problem with cilazapril. Although cilazapril has a more rigid structure than other ACE-inhibitors and has no distinct tendency to intramolecular cyclisation, it presents stability problems in adhesive layers of transdermal therapeutic systems as shown in Table 1.

[7] = porcine skin homogenate, 37° C.
[8] = 9 months, 25° C./60% relative humidity

SMILES	crystallization in the TTS [1]	reaction kinetics in porcine skin homogenate [2]	half-life [2, 7]	f50% (h), time by which 50% of total cilazaprilate has been formed (in vitro; human)	half-life (in vitro; human, plasma)	in vitro skin flux compared to the cilazapril TTS [3]	assay [%] ([4]; 0 months, uncontrolled)	assay [%] [4, 8]	degradation / reaction kinetics of enzymatic hydrolysis [5]	enzymatic cleavage / hydrolysis to cilazaprilate [5]	half-life (porcine liver esterase)	also measured
CCOC(=O)OC(C)OC(=O)[C@@H]1CCCN2CCCC(N[C@@H](CCc3ccccc3)C(=O)OCC)C(=O)N12 (stereo partly drawn) [compound 1, (1S,9S)-1-(ethoxycarbonyloxy)ethyl 9-[[(1S)-1-ethoxycarbonyl-3-phenylpropyl]amino]-10-oxooctahydro-1H-pyridazino[1,2-a][1,2]diazepine-1-carboxylate]	none of the TTS showed crystallization	fast reaction kinetics	0.43 h	154 h	0.58 h	increase in in vitro skin flux	99.3%	98.0%	fast degradation	formation of cilazaprilate as the final metabolite	0.67 h	–
CCOC(=O)[C@H](CCc1ccccc1)NC1CCCN2CCC[C@@H](C(=O)OC(C)OC(=O)OC3CCCCC3)N2C1=O (stereo partly drawn) [compound 2, (1S,9S)-1-(cyclohexyloxycarbonyloxy)ethyl 9-[[(1S)-1-ethoxycarbonyl-3-phenylpropyl]amino]-10-oxooctahydro-1H-pyridazino[1,2-a][1,2]diazepine-1-carboxylate]	none of the TTS showed crystallization	fast reaction kinetics	1.4 h	228 h	3.2 h	increase in in vitro skin flux	100.0%	98.3%	fast degradation	formation of cilazaprilate as the final metabolite	4.2 h	–
CCOC(=O)[C@H](CCc1ccccc1)N[C@H]1CCCN2CCC[C@@H](C(=O)O)N2C1=O [cilazapril, (1S,9S)-9-[[(1S)-1-ethoxycarbonyl-3-phenylpropyl]amino]octahydro-10-oxo-6H-pyridazino[1,2-a][1,2]diazepine-1-carboxylic acid, reference compound]	–	–	9.4 h	–	–	–	99.8%	97.0%	–	–	3.3 h	half-life (in vitro; human plasma, 37° C., read-out: t1/2 (converted)): 88.8 h; assay [%] ([6]; 0 months, uncontrolled): 98.1%; assay [%] ([6]; 3 weeks, 25° C./60% relative humidity): 98.0%; assay [%] ([6]; 3 weeks, 40° C./75% relative humidity): 95.9%; assay [%] ([6]; 7 months, 25° C./60% relative humidity): 91.9%; assay [%] ([6]; 7 months, 40° C./75% relative humidity): 80.4%
CCOC(=O)[C@H](CCc1ccccc1)NC1CCCN2CCC[C@@H](C(=O)OC(C)OC(=O)OC(C)C)N2C1=O (stereo partly drawn) [compound 3, (1S,9S)-1-(isopropyloxycarbonyloxy)ethyl 9-[[(1S)-1-ethoxycarbonyl-3-phenylpropyl]amino]-10-oxooctahydro-1H-pyridazino[1,2-a][1,2]diazepine-1-carboxylate]	–	–	1 h	108 h	1.9 h	–	–	–	fast degradation	formation of cilazaprilate as the final metabolite	1.5 h	–
CCOC(=O)[C@H](CCc1ccccc1)NC1CCCN2CCC[C@@H](C(=O)OC(C)OC(=O)CN3CCOCC3)N2C1=O (stereo partly drawn) [compound 7, (1S,9S)-1-(2-morpholinoacetoxy)ethyl 9-[[(1S)-1-ethoxycarbonyl-3-phenylpropyl]amino]-10-oxooctahydro-1H-pyridazino[1,2-a][1,2]diazepine-1-carboxylate]	–	–	0.33 h	132 h	0.83 h	–	–	–	fast reaction kinetics	–	0.77 h	–
CCOC(=O)[C@H](CCc1ccccc1)NC1CCCN2CCC[C@@H](C(=O)OC(C)OC(C)=O)N2C1=O (stereo partly drawn) [compound 4, (1S,9S)-1-(acetoxy)ethyl 9-[[(1S)-1-ethoxycarbonyl-3-phenylpropyl]amino]-10-oxooctahydro-1H-pyridazino[1,2-a][1,2]diazepine-1-carboxylate]	–	–	0.5 h	91.2 h	0.68 h	–	–	–	fast degradation	formation of cilazaprilate as the final metabolite	0.63 h	–
CCOC(=O)[C@H](CCc1ccccc1)N[C@H]1CCCN2CCC[C@@H](C(=O)OCCN3CCOCC3)N2C1=O [compound 6, (1S,9S)-2-morpholinoethyl 9-[[(1S)-1-ethoxycarbonyl-3-phenylpropyl]amino]-10-oxooctahydro-1H-pyridazino[1,2-a][1,2]diazepine-1-carboxylate]	none of the TTS showed crystallization	fast reaction kinetics	0.5 h	10.8 h	1.3 h	increase in in vitro skin flux	98.1%	94.7%	fast reaction kinetics	–	0.95 h	–
CCOC(=O)[C@H](CCc1ccccc1)N[C@H]1CCCN2CCC[C@@H](C(=O)OCC)N2C1=O [cilazapril ethyl ester, reference compound]	–	–	–	–	–	–	–	–	–	no hydrolysis to cilazaprilate was detectable	–	t1/2 [2, 7]: 0.35 h; t1/2 (in vitro; human plasma, 37° C.): 11.9 h; enzymatic cleavage / hydrolysis to cilazaprilate ([5]; listed as ethyl ester of cilazapril): stable against enzymatic cleavage; t1/2 (porcine liver esterase): 0.69 h
CCOC(=O)[C@H](CCc1ccccc1)NC1CCCN2CCC[C@@H](C(=O)OC(C)OC(=O)C(C)(C)C)N2C1=O (stereo partly drawn) [compound 5, (1S,9S)-1-(2,2-dimethylpropanoyloxy)ethyl 9-[[(1S)-1-ethoxycarbonyl-3-phenylpropyl]amino]-10-oxooctahydro-1H-pyridazino[1,2-a][1,2]diazepine-1-carboxylate]	–	–	1 h	33.6 h	5.1 h	–	–	–	fast degradation	formation of cilazaprilate as the final metabolite	3.8 h	–
